System: α7 integrin promoter
Experiment: muscle cell-based assay: α7βgal+/− myoblasts/myotubes, LacZ reporter, β-galactosidase cleavage of FDG
Design: species or system mouse
Conditions: Myotubes; for Results in a α7+/− β-galactosidase assay, Myotubes, 0.5 uM: compound at 0.5 uM; for Results in a α7+/− β-galactosidase assay, Myotubes, 1 uM: compound at 1 uM; for Results in a α7+/− β-galactosidase assay, Myotubes, 5 uM: compound at 5 uM; for Results in a α7+/− β-galactosidase assay, Myotubes, 10 uM: compound at 10 uM; for Results in a α7+/− β-galactosidase assay, Myotubes, 20 uM: compound at 20 uM; for Results in a α7+/− β-galactosidase assay, Myotubes, 40 uM: compound at 40 uM
Method in brief: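 Fluorescein generated from FDG by β-galactosidase reports α7 integrin promoter activity in differentiated myoblasts from α7+/− LacZ knock-in pups. Screening hits then went to dose-response, western blotting and a myostatin counterscreen.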

O=C(N[C@@H](Cc1c[nH]c2ccccc12)C(=O)O)C1CCN(S(=O)(=O)c2cccs2)CC1 [drawing 414]
Results in a α7+/− β-galactosidase assay, Myotubes, 0.5 uM: 0.08394 | Results in a α7+/− β-galactosidase assay, Myotubes, 1 uM: 0.03833 | Results in a α7+/− β-galactosidase assay, Myotubes, 5 uM: 0.03594 | Results in a α7+/− β-galactosidase assay, Myotubes, 10 uM: −0.09429 | Results in a α7+/− β-galactosidase assay, Myotubes, 20 uM: 0.01148 | Results in a α7+/− β-galactosidase assay, Myotubes, 40 uM: −0.09282

COC(=O)Cn1c(=O)c2c(nc3n2CC(C)CN3Cc2ccccc2)n(C)c1=O (stereo not drawn) [drawing 415]
Results in a α7+/− β-galactosidase assay, Myotubes, 0.5 uM: 0.05467 | Results in a α7+/− β-galactosidase assay, Myotubes, 1 uM: 0.04855 | Results in a α7+/− β-galactosidase assay, Myotubes, 5 uM: −0.1372 | Results in a α7+/− β-galactosidase assay, Myotubes, 10 uM: −0.2301 | Results in a α7+/− β-galactosidase assay, Myotubes, 20 uM: 0.01742 | Results in a α7+/− β-galactosidase assay, Myotubes, 40 uM: −0.09631

CCOC(=O)c1cc(C(=O)OCC)c(SCc2ccccc2)nc1O [drawing 416]
Results in a α7+/− β-galactosidase assay, Myotubes, 0.5 uM: −0.05564 | Results in a α7+/− β-galactosidase assay, Myotubes, 1 uM: −0.06589 | Results in a α7+/− β-galactosidase assay, Myotubes, 5 uM: 0.2144 | Results in a α7+/− β-galactosidase assay, Myotubes, 10 uM: −0.09676 | Results in a α7+/− β-galactosidase assay, Myotubes, 20 uM: −0.147 | Results in a α7+/− β-galactosidase assay, Myotubes, 40 uM: −0.37

Oc1nc2ccccc2nc1-c1c[nH]c2ccccc12 [drawing 417]
Results in a α7+/− β-galactosidase assay, Myotubes, 0.5 uM: −0.06072 | Results in a α7+/− β-galactosidase assay, Myotubes, 1 uM: −0.2204 | Results in a α7+/− β-galactosidase assay, Myotubes, 5 uM: −0.08742 | Results in a α7+/− β-galactosidase assay, Myotubes, 10 uM: 0.05064 | Results in a α7+/− β-galactosidase assay, Myotubes, 20 uM: −0.4132 | Results in a α7+/− β-galactosidase assay, Myotubes, 40 uM: −0.2613

O=C(Nc1cc(-c2nc3ccccc3s2)ccc1Cl)c1ccc2c(c1)OCO2 [drawing 418]
Results in a α7+/− β-galactosidase assay, Myotubes, 0.5 uM: 0.01013 | Results in a α7+/− β-galactosidase assay, Myotubes, 1 uM: −0.09877 | Results in a α7+/− β-galactosidase assay, Myotubes, 5 uM: 0.05089 | Results in a α7+/− β-galactosidase assay, Myotubes, 10 uM: 0.3348 | Results in a α7+/− β-galactosidase assay, Myotubes, 20 uM: −0.3294 | Results in a α7+/− β-galactosidase assay, Myotubes, 40 uM: −0.3941

Cn1c(-c2ccccc2)cc2ccccc21 [drawing 419]
Results in a α7+/− β-galactosidase assay, Myotubes, 0.5 uM: −0.1946 | Results in a α7+/− β-galactosidase assay, Myotubes, 1 uM: −0.1516 | Results in a α7+/− β-galactosidase assay, Myotubes, 5 uM: 0.03646 | Results in a α7+/− β-galactosidase assay, Myotubes, 10 uM: 0.2623 | Results in a α7+/− β-galactosidase assay, Myotubes, 20 uM: −0.2495 | Results in a α7+/− β-galactosidase assay, Myotubes, 40 uM: −0.1512

COc1ccc(C(=O)/C=C2\C(=O)Nc3ccccc32)cc1OC [drawing 420]
Results in a α7+/− β-galactosidase assay, Myotubes, 0.5 uM: −0.03323 | Results in a α7+/− β-galactosidase assay, Myotubes, 1 uM: −0.07984 | Results in a α7+/− β-galactosidase assay, Myotubes, 5 uM: 0.02829 | Results in a α7+/− β-galactosidase assay, Myotubes, 10 uM: 0.263 | Results in a α7+/− β-galactosidase assay, Myotubes, 20 uM: −0.3062 | Results in a α7+/− β-galactosidase assay, Myotubes, 40 uM: −0.184

CC(C(=O)Nc1ccc(C#N)cc1)N(C)CC(=O)Nc1cccc(F)c1 (stereo not drawn) [drawing 421]
Results in a α7+/− β-galactosidase assay, Myotubes, 0.5 uM: 0.03075 | Results in a α7+/− β-galactosidase assay, Myotubes, 1 uM: −0.03964 | Results in a α7+/− β-galactosidase assay, Myotubes, 5 uM: −0.1345 | Results in a α7+/− β-galactosidase assay, Myotubes, 10 uM: 0.2992 | Results in a α7+/− β-galactosidase assay, Myotubes, 20 uM: −0.138 | Results in a α7+/− β-galactosidase assay, Myotubes, 40 uM: 0.2085

CC(C(=O)Nc1ccc(C#N)cc1)N(C)CC(=O)Nc1cccc(F)c1 (stereo not drawn) [drawing 422]
Results in a α7+/− β-galactosidase assay, Myotubes, 0.5 uM: −0.07067 | Results in a α7+/− β-galactosidase assay, Myotubes, 1 uM: −0.1638 | Results in a α7+/− β-galactosidase assay, Myotubes, 5 uM: 0.1526 | Results in a α7+/− β-galactosidase assay, Myotubes, 10 uM: 0.4825 | Results in a α7+/− β-galactosidase assay, Myotubes, 20 uM: −0.1663 | Results in a α7+/− β-galactosidase assay, Myotubes, 40 uM: 0.2317

CC1Cc2ccccc2N1C(=O)CSc1nnc(N)s1 (stereo not drawn) [drawing 423]
Results in a α7+/− β-galactosidase assay, Myotubes, 0.5 uM: −0.03474 | Results in a α7+/− β-galactosidase assay, Myotubes, 1 uM: −0.1188 | Results in a α7+/− β-galactosidase assay, Myotubes, 5 uM: −0.01338 | Results in a α7+/− β-galactosidase assay, Myotubes, 10 uM: 0.3723 | Results in a α7+/− β-galactosidase assay, Myotubes, 20 uM: −0.1603 | Results in a α7+/− β-galactosidase assay, Myotubes, 40 uM: 0.2399

CC(C)(C)NC(=O)NC(=O)CN1CCN(Cc2ccccc2)CC1 [drawing 424]
Results in a α7+/− β-galactosidase assay, Myotubes, 0.5 uM: 0.003071 | Results in a α7+/− β-galactosidase assay, Myotubes, 1 uM: −0.04272 | Results in a α7+/− β-galactosidase assay, Myotubes, 5 uM: 0.04658 | Results in a α7+/− β-galactosidase assay, Myotubes, 10 uM: 0.4408 | Results in a α7+/− β-galactosidase assay, Myotubes, 20 uM: −0.2165 | Results in a α7+/− β-galactosidase assay, Myotubes, 40 uM: 0.07828

COc1cc(C=O)ccc1OCC(=O)Nc1ccc2c(c1)OCO2 [drawing 425]
Results in a α7+/− β-galactosidase assay, Myotubes, 0.5 uM: −0.1155 | Results in a α7+/− β-galactosidase assay, Myotubes, 1 uM: −0.1633 | Results in a α7+/− β-galactosidase assay, Myotubes, 5 uM: 0.1998 | Results in a α7+/− β-galactosidase assay, Myotubes, 10 uM: 0.4511 | Results in a α7+/− β-galactosidase assay, Myotubes, 20 uM: −0.2886 | Results in a α7+/− β-galactosidase assay, Myotubes, 40 uM: 0.003215

From patent US10028992B2, “Methods of treating muscular dystrophy” (BOARD OF REGENTS OF THE NEVADA SYSTEM OF HIGHER EDUCATION …, priority 2012, dated 2018)
